Assay: xn = mol fraction of the nth substance listed

COc1ccccc1N + CNC=O
viscosity [mPa·s], 100 kPa
Details	x2 = 0.0714	x2 = 0.1715	x2 = 0.2636	x2 = 0.3576	x2 = 0.4701	x2 = 0.5625	x2 = 0.6556	x2 = 0.7454	x2 = 0.8325
303.15 K	4.69	4.361	4.058	3.747	3.373	3.065	2.753	2.45	2.155
308.15 K	4.301	4.001	3.725	3.441	3.1	2.817	2.532	2.256	1.986
313.15 K	3.99	3.713	3.456	3.192	2.875	2.613	2.348	2.091	1.841
318.15 K	3.702	3.446	3.209	2.964	2.67	2.428	2.182	1.944	1.711

C1CCCCC1 + CO
viscosity [mPa·s], 101.32 kPa
Details	321.15 K	322.15 K	323.15 K
x2 = 0.121	0.5549	0.5469	0.539
x2 = 0.226	0.5465	0.5386	0.5465
x2 = 0.396	0.5423	0.5334	0.5239
x2 = 0.467	0.5629	0.5508	0.5356
x2 = 0.5	0.5933	0.5559	0.5379
x2 = 0.527	0.5771	0.5464	0.53
x2 = 0.637	0.5116	0.5017	0.4925
x2 = 0.724	0.4688	0.4624	0.4564
x2 = 0.762	0.4569	0.4514	0.4459
x2 = 0.798	0.4443	0.4363	0.4338
x2 = 0.83	0.4338	0.4284	0.4233
x2 = 0.86	0.4249	0.4198	0.4148
x2 = 0.913	0.4122	0.4074	0.4024
x2 = 0.959	0.4053	0.4003	0.3956

COC(C)=O + CO
298.15 K, 101.33 kPa
Details	viscosity [mPa·s]
x1 = 0.0996	0.498
x1 = 0.2029	0.462
x1 = 0.3433	0.421
x1 = 0.4025	0.41
x1 = 0.4912	0.397
x1 = 0.6272	0.386
x1 = 0.7892	0.38
x1 = 0.8704	0.381

COCCOC + CO
298.15 K, 101 kPa
Details	viscosity [mPa·s]
x1 = 0.03801	0.5333
x1 = 0.08163	0.5252
x1 = 0.1322	0.5142
x1 = 0.1916	0.4946
x1 = 0.2623	0.479
x1 = 0.3478	0.4627
x1 = 0.4534	0.4496
x1 = 0.5871	0.4355
x1 = 0.7619	0.4209

O=C(O)c1ccccc1 + CO
viscosity [mPa·s]
Details	298.15 K	303.15 K	308.15 K	313.15 K	318.15 K
101 kPa, x1 = 0.15	–	1.196	–	–	0.9466
101 kPa, x1 = 0.151	1.311	1.196	1.098	1.014	0.9466
101 kPa, x1 = 0.16	–	1.29	–	–	1.002
101 kPa, x1 = 0.179	–	1.36	1.25	1.147	1.053
101 kPa, x1 = 0.18	–	1.36	–	–	1.053
101 kPa, x1 = 0.2	–	–	–	–	1.133
101.33 kPa, x1 = 0.15	1.311	1.196	1.098	1.014	0.9466
101.33 kPa, x1 = 0.1514	–	1.196	–	–	0.9466
101.33 kPa, x1 = 0.1626	–	1.29	–	–	1.002
101.33 kPa, x1 = 0.1788	–	1.36	–	–	1.053
101.33 kPa, x1 = 0.18	–	1.36	1.25	1.147	1.053
101.33 kPa, x1 = 0.1961	–	–	–	–	1.133

COC(C)=O + COCCO
viscosity [mPa·s], 101 kPa
Details	x2 = 0.0993	x2 = 0.2004	x2 = 0.2993	x2 = 0.4009	x2 = 0.4996	x2 = 0.6014	x2 = 0.7013	x2 = 0.8006	x2 = 0.9001
298.15 K	0.429	0.484	0.549	0.636	0.729	0.862	1.012	1.218	1.453
303.15 K	0.407	0.457	0.517	0.596	0.679	0.797	0.929	1.112	1.317
308.15 K	0.387	0.432	0.486	0.556	0.632	0.738	0.858	1.025	1.2

COc1ccccc1N + COCCO
303.15 K, 101 kPa
Details	viscosity [mPa·s]
x1 = 0.0724	2.225
x1 = 0.1494	2.507
x1 = 0.2314	2.808
x1 = 0.319	3.132
x1 = 0.4127	3.478
x1 = 0.5131	3.794
x1 = 0.6211	4.083
x1 = 0.7376	4.343
x1 = 0.8635	4.614

c1ccc2ncccc2c1 + COc1ccccc1O
303.15 K, 101 kPa
Details	viscosity [mPa·s]
x1 = 0.1	5.95
x1 = 0.2	8.05
x1 = 0.3	10.04
x1 = 0.333	10.54
x1 = 0.36	10.97
x1 = 0.38	11.45
x1 = 0.4	11.65
x1 = 0.44	11.66
x1 = 0.46	11.57
x1 = 0.5	10.95
x1 = 0.6	8.98
x1 = 0.7	6.77
x1 = 0.8	4.87
x1 = 0.9	3.88

CCC(C)=O + CS(C)=O
viscosity [mPa·s], 101.3 kPa
Details	298.15 K	308.15 K	318.15 K
x1 = 0.054	1.762	1.448	1.23
x1 = 0.107	1.615	1.335	1.142
x1 = 0.213	1.372	1.138	0.982
x1 = 0.317	1.162	0.979	0.852
x1 = 0.419	0.988	0.83	0.734
x1 = 0.52	0.835	0.712	0.639
x1 = 0.619	0.717	0.621	0.561
x1 = 0.716	0.627	0.547	0.496
x1 = 0.812	0.54	0.473	0.436
x1 = 0.907	0.462	0.407	0.383
x1 = 0.954	0.438	0.379	0.361

OCCNCCO + C[N+](C)(C)CCO.[Cl-]
viscosity [mPa·s], 101 kPa
Details	x2 = 0.091	x2 = 0.111	x2 = 0.143
293.15 K	611.4	565.3	567
313.15 K	151.4	150.4	149.2

CCC(C)=O + Cc1ccc(C)cc1
307.35 K, 101.33 kPa
Details	viscosity [mPa·s]
x1 = 0.1273	0.515
x1 = 0.311	0.48
x1 = 0.3949	0.457
x1 = 0.5326	0.434
x1 = 0.5913	0.419
x1 = 0.6949	0.401
x1 = 0.7871	0.388

COC(C)=O + Cc1ccc(C)cc1
viscosity [mPa·s], 101 kPa
Details	298.15 K	308.15 K
x1 = 0.0478	0.592	0.521
x1 = 0.1516	0.548	0.49
x1 = 0.2496	0.514	0.465
x1 = 0.3526	0.483	0.442
x1 = 0.4453	0.46	0.423
x1 = 0.492	0.449	0.415
x1 = 0.5525	0.437	0.404
x1 = 0.6515	0.42	0.389
x1 = 0.7506	0.406	0.376
x1 = 0.8511	0.395	0.365
x1 = 0.9428	0.388	0.356

From the CheMixHub viscosity set
